Assays:
[1] = target: T1, rod CNG channels (CNGA1:CNGB1a) (Bos taurus, UniProt Q00194+Q28181); assay: Patch-clamp on inside-out patches, heterotetrameric rod CNG channels expressed in Xenopus laevis oocytes; assay type: cell-based, bovine; settings: for efficacy in activating rod CNG channels compared to cGMP: related to maximal cGMP-induced current; for effect on cGMP-activated rod CNG-channel activity: analogue(s) co-applied with cGMP (50 µM; combination 50 µM inhibitor + activator)
T1 construct: expressed in transfected cells; host or cells: Xenopus laevis oocytes (cRNA injection, pGEMHE vector); inside-out patches
Text: The patch pipettes were pulled from borosilicate glass tubing (outer diameter 2.0 mm, inner diameter 1.0 mm; Hilgenberg GmbH, Malsfeld, Germany). The initial resistance of the solution-filled pipettes was 0.6–1.4 MΩ. […] For studying the activation and deactivation kinetics of CNG channels, we performed fast jumps between different ligand concentrations by means of a double-barreled θ-glass pipette mounted on a piezo-driven device, which was controlled by the computer. For measuring the time courses, the recording rate was 20 kHz. […]

[2] = target: T2, cone CNG channels (CNGA3:CNGB3) (Homo sapiens, UniProt Q16281+Q9NQW8); assay: Patch-clamp on inside-out patches, heterotetrameric cone CNG channels expressed in Xenopus laevis oocytes; assay type: cell-based; settings: for efficacy in activating cone CNG channels compared to cGMP: related to maximal cGMP-induced current; for effect on cGMP-activated cone CNG-channel activity: analogue(s) co-applied with cGMP (50 µM; combination 50 µM inhibitor + activator); for EC50: concentration-activation relationship, Hill fit, read-out: EC50, cone CNG channels
T2 construct: expressed in transfected cells; host or cells: Xenopus laevis oocytes (cRNA injection, pGEMHE vector); inside-out patches
T2 sequence (Q16281 1-694): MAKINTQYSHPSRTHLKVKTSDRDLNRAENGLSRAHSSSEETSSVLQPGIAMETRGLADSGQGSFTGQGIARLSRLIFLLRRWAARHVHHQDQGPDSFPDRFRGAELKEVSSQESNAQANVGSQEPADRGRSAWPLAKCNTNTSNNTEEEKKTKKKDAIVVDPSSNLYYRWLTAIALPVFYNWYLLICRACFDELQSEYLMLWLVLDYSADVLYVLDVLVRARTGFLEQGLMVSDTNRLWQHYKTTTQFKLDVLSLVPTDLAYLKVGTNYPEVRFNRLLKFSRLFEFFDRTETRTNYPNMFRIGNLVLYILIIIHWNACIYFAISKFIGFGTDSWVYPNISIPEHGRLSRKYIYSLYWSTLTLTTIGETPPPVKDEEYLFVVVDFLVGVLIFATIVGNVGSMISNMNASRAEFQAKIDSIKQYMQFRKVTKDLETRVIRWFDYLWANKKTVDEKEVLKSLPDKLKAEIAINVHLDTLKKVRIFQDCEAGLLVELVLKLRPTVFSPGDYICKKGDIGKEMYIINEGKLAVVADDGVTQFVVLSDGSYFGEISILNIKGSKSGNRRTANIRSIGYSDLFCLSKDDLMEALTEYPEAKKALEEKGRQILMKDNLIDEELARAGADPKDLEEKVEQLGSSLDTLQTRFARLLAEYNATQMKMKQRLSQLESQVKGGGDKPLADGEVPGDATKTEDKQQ
T2 sequence (Q9NQW8 1-809): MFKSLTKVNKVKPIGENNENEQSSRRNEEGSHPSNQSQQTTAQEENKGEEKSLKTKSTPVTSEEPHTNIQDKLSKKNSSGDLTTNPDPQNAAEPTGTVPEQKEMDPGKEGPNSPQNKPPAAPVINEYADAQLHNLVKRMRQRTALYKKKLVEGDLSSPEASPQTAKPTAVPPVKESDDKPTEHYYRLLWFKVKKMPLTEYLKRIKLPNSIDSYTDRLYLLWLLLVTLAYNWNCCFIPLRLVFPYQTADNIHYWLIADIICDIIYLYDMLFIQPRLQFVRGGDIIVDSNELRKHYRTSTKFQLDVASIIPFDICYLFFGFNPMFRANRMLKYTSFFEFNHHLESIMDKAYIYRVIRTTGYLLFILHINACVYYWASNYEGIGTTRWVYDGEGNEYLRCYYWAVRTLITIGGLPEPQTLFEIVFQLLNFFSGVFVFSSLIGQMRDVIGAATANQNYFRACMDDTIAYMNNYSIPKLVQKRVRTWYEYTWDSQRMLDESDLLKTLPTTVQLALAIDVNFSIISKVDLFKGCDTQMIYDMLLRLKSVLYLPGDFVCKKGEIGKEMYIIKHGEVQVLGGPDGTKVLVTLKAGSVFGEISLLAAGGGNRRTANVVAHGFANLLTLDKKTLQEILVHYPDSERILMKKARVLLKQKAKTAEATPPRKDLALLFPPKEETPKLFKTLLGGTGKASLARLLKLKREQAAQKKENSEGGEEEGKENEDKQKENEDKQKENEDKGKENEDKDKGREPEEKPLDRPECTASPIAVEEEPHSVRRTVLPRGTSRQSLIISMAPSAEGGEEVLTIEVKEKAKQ
Text: The patch pipettes were pulled from borosilicate glass tubing (outer diameter 2.0 mm, inner diameter 1.0 mm; Hilgenberg GmbH, Malsfeld, Germany). The initial resistance of the solution-filled pipettes was 0.6–1.4 MΩ. […] For studying the activation and deactivation kinetics of CNG channels, we performed fast jumps between different ligand concentrations by means of a double-barreled θ-glass pipette mounted on a piezo-driven device, which was controlled by the computer. For measuring the time courses, the recording rate was 20 kHz.
The activation and deactivation time courses were determined by fitting the respective current traces with single exponentials:(3) I(t)=A∗exp[−t/τ] where A is the amplitude, t the time, and τ the time constant for either activation or deactivation.

CNG-channel in rods = tested on: CNG-channel in rods; parameters: method as in PMID 8778280; settings: previous study, ref [44]; cited from earlier work
[3] = cGMP + 50 µM of the cGMP analogue
[4] = 100 µM, +100 mV, activity triggered by 3 mM cGMP

T1 sequence (Q00194 whole entry): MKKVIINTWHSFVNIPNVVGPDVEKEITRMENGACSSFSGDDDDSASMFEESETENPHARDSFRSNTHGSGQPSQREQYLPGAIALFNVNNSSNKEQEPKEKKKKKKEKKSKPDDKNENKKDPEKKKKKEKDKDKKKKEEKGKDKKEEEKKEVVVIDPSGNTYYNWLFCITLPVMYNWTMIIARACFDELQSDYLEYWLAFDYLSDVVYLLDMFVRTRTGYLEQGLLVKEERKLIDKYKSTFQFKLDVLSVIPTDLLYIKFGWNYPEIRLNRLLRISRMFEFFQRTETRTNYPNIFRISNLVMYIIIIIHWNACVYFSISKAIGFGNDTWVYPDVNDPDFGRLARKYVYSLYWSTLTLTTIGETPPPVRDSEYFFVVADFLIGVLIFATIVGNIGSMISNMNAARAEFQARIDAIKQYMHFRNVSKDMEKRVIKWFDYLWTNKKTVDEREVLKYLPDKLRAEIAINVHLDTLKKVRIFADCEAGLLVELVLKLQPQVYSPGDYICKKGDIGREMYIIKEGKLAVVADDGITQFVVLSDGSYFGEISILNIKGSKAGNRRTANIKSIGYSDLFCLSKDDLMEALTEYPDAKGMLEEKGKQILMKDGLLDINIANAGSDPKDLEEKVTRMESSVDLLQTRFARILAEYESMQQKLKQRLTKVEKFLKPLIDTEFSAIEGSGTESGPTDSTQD
T1 sequence (Q28181 whole entry): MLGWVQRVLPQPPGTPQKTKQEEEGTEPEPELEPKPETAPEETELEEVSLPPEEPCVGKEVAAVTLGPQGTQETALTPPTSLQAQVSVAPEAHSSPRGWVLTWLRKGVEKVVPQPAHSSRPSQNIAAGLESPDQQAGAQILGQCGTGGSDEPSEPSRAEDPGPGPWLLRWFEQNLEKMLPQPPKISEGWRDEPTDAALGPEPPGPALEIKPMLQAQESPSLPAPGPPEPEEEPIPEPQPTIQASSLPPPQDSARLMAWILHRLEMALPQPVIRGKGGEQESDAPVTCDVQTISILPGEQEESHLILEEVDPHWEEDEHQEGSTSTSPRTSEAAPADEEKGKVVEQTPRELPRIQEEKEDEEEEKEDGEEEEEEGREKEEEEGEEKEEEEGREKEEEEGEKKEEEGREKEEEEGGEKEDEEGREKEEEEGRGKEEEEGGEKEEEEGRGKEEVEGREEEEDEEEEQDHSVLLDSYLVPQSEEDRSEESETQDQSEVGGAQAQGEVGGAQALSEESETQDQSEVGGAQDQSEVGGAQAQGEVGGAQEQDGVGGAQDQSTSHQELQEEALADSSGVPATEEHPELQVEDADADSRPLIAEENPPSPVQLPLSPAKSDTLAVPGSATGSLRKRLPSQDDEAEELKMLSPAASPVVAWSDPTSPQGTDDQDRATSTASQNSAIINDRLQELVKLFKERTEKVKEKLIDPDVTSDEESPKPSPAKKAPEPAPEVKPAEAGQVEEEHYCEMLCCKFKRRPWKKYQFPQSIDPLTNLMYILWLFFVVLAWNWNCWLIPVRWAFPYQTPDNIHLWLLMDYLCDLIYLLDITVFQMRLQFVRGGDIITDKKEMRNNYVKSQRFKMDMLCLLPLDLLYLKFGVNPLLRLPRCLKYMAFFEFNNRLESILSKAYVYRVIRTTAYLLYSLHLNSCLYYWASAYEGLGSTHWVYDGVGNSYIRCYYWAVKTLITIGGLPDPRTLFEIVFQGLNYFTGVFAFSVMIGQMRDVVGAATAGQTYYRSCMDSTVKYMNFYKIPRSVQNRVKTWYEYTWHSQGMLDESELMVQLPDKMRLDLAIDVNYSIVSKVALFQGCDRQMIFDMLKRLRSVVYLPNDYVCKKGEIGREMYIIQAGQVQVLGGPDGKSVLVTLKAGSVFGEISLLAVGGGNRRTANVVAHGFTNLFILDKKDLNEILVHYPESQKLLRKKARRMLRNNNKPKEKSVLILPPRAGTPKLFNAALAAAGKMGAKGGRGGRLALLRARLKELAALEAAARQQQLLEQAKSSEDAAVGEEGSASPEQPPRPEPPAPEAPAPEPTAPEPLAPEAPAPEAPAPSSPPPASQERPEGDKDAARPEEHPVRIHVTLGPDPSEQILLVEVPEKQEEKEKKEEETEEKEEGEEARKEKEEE

Nc1nc2c(ncn2[C@@H]2O[C@@H]3CO[P@@](=O)(S)O[C@H]3[C@H]2O)c(=O)[nH]1 [Rp-cGMPS]
efficacy in activating rod CNG channels compared to cGMP ([1]; +100 mV): lower efficacy than cGMP | H (Hill coefficient), rod CNG channels [1, 3]: 1.52 | efficacy in activating cone CNG channels compared to cGMP ([2]; +100 mV): lower efficacy than cGMP | effect on cGMP-activated cone CNG-channel activity [2]: did not influence the activity of cone channels | H (Hill coefficient), cone CNG channels [2, 3]: 1.13

O=C1Cn2c(nc3c(nc(Br)n3[C@@H]3O[C@@H]4CO[P@@](=O)(S)O[C@H]4[C@H]3O)c2=O)N1 [Rp-ß-1,N2-Ac-Br-cGMPS, Rp-ß-1,N^2-Ac-Br-cGMPS]
efficacy in activating rod CNG channels compared to cGMP ([1]; +100 mV): lower efficacy than cGMP | H (Hill coefficient), rod CNG channels [1, 3]: 2.06 | efficacy in activating cone CNG channels compared to cGMP ([2]; +100 mV): lower efficacy than cGMP | effect on cGMP-activated cone CNG-channel activity [2]: did not influence the activity of cone channels | H (Hill coefficient), cone CNG channels [2, 3]: 1.64

O=c1c2nc(Br)n([C@@H]3O[C@@H]4COP(=O)(O)O[C@H]4[C@H]3O)c2nc2[nH]c(-c3ccccc3)cn12 [8-Br-PET-cGMP]
effect on cGMP-activated rod CNG-channel activity [1]: under physiological cGMP it produced a potentiation of retinal CNG-channel activity, whereas at higher cGMP it caused minor inhibition | H (Hill coefficient), rod CNG channels [1, 3]: 1.05 | Emax ([1]; read-out: efficacy of activating rod channel, of maximal activation): < 1% | effect on cGMP-activated cone CNG-channel activity [2]: under physiological cGMP it produced a potentiation of retinal CNG-channel activity, whereas at higher cGMP it caused minor inhibition | H (Hill coefficient), cone CNG channels [2, 3]: 1.5

Nc1nc2c(nc(Sc3ccc(Cl)cc3)n2[C@@H]2O[C@@H]3CO[P@@](=O)(S)O[C@H]3[C@H]2O)c(=O)[nH]1 [Rp-8-pCPT-cGMPS]
efficacy in activating rod CNG channels compared to cGMP ([1]; +100 mV): drastically reduced the efficacy | effect on cGMP-activated rod CNG-channel activity [1]: their activity at physiological cGMP increased, and at higher cGMP levels decreased | H (Hill coefficient), rod CNG channels [1, 3]: 1.23 | efficacy in activating cone CNG channels compared to cGMP ([2]; +100 mV): drastically reduced the efficacy | effect on cGMP-activated cone CNG-channel activity [2]: their activity at physiological cGMP increased, and at higher cGMP levels decreased | H (Hill coefficient), cone CNG channels [2, 3]: 1.04 | maximal CNG-channel activation in rods (CNG-channel in rods): ~ 93%

O=c1c2ncn([C@@H]3O[C@@H]4COP(=O)(O)O[C@H]4[C@H]3O)c2nc2[nH]c(-c3ccccc3)cn12 [PET-cGMP]
efficacy in activating rod CNG channels compared to cGMP ([1]; +100 mV): partial agonist | efficacy in activating cone CNG channels compared to cGMP ([2]; +100 mV): partial agonist

O=c1c2ncn([C@@H]3O[C@@H]4CO[P@@](=O)(S)O[C@H]4[C@H]3O)c2nc2[nH]c(-c3ccc4ccccc4c3)cn12 [Rp-(2-N)ET-cGMPS]
efficacy in activating rod CNG channels compared to cGMP ([1]; +100 mV): lower efficacy than cGMP | H (Hill coefficient), rod CNG channels [1, 3]: 1.68 | efficacy in activating cone CNG channels compared to cGMP ([2]; +100 mV): lower efficacy than cGMP | H (Hill coefficient), cone CNG channels [2, 3]: 1.84

Nc1nc2c(ncn2[C@@H]2O[C@@H]3COP(=O)(O)O[C@H]3[C@H]2O)c(=O)[nH]1 [cGMP, reference compound]
H (Hill coefficient), rod CNG channels ([1]; ligand alone): 2.1 | deactivation time constant τdeact, cone CNG channels ([2]; 5 µM cGMP alone or 5 µM cGMP + 50 µM inhibitor + 0.1 µM activator, concentration jump): 80.6 ± 4.6 ms | H (Hill coefficient), cone CNG channels ([2]; ligand alone): 1.47 | EC50 ([2]; ligand alone): 11.1 µM

Nc1nc2c(nc(Br)n2[C@@H]2O[C@@H]3COP(=O)(O)O[C@H]3[C@H]2O)c(=O)[nH]1 [8-Br-cGMP]
H (Hill coefficient), rod CNG channels ([1]; ligand alone): 2.1 | EC50 ([1]; ligand alone, concentration-activation relationship, Hill fit, read-out: EC50, rod CNG channels): 6.61 µM | H (Hill coefficient), cone CNG channels ([2]; ligand alone): 1.94 | EC50 ([2]; ligand alone): 1.05 µM

O=c1c2nc(Br)n([C@@H]3O[C@@H]4CO[P@@](=O)(S)O[C@H]4[C@H]3O)c2nc2[nH]c(-c3ccc4ccccc4c3)cn12 [Rp-8-Br-(2-N)ET-cGMPS]
efficacy in activating rod CNG channels compared to cGMP ([1]; +100 mV): lower efficacy than cGMP | H (Hill coefficient), rod CNG channels [1, 3]: 1.66 | efficacy in activating cone CNG channels compared to cGMP ([2]; +100 mV): lower efficacy than cGMP | H (Hill coefficient), cone CNG channels [2, 3]: 1.53

COc1ccc([C@H]2Sc3ccccc3N(CCN(C)C)C(=O)[C@H]2OC(C)=O)cc1 (relative stereo) [L-cis-diltiazem, reference compound]
block of rod CNG channel activity [1, 4]: ~ 90.5% | block of cone CNG channel activity [2, 4]: ~ 63.4%

Reference: publication PMC9612005 (Pharmaceutics, 2022)
